Test results: patent US6451854B1, “α-amino acid phenyl ester derivatives” (Akzo Nobel N.V., priority 1998, dated 2002)
Structures can show the parent of a compound that is named as a salt.

Assays:
[1] = target: GABAA receptors; assay: inhibition of [35S]-TBPS binding to rat whole brain membranes; conditions: concentration required to inhibit 50% of [35S]-TBPS binding
Source text: γ-Aminobutyric acid (GABA) is the major inhibitory neurotransmitter within the central nervous system and it is probable that compounds potentiating the effects of GABA at GABAA receptors will induce anaesthesia (S. A. Zimmerman, M. V. Jones and N. L. Harrison, J. Pharmacol. Exp. Therap. 1994, 270, 987-991; N. P. Franks and W. R. Lieb, Nature 1994, 367, 607-614). Indeed there is compelling evidence that many hypnotics exert their biological activity via modulation of GABAA receptors, including steroids, barbiturates, benzodiazepines and propofol (D. L. Tanelian, P. Kosek, I. Mody and M. B. Maclver, Anesthesiology 1993, 78, 757-776).
The in vitro effect of the compounds of the invention at GABAA receptors was assessed through determination of their ability to inhibit [^35S]-TBPS ([^35S]-tert-butyl bicyclophosphorothionate) binding to rat whole brain membranes. The concentration of α-amino acid phenyl ester derivative required to inhibit 50% of binding of [^35S]-TBPS was determined. These in vitro experiments were carried out as described in detail by Anderson et al., J.Med.Chem. 1997, 40, 1668-1681.

[2] = test system: mice; assay: hypnotic activity: loss of righting reflex after intravenous administration in mice; assay type: in vivo; conditions: dose causing loss of righting reflex for minimum 30 seconds in 50% of mice, intravenous injection over 10 seconds; for ED50: Mus musculus, iv, read-out: HD50 (the source's name)
Method: The hypnotic potency of the α-amino acid phenyl ester derivatives of the invention was determined upon their intravenous administration in mice. The dose required to cause a loss of righting reflex for a minimum period of 30 seconds in 50% of treated mice after intravenous injection over 10 seconds was determined. This dose is termed the HD50 (hypnotic dose50) and is expressed in μmol.kg^−1.

Compound | IC50 [1] | ED50 [2] | HD50 [2]
CCOCCN(CCOCC)C(C)C(=O)Oc1c(OC)cccc1OC (racemic) [Example 7d, (±)-2-[N-bis(2-ethoxyethyl)amino]propionic acid, 2,6-dimethoxyphenyl ester hydrochloride (1:1) salt] | ≤ 100 µM | 68 µmol/kg | –
CCC(C(=O)Oc1c(OC)cccc1OC)N(C)Cc1ccccc1 (racemic) [Example 7k, (±)-2-[N-methylbenzylamino]butyric acid, 2,6-dimethoxyphenyl ester hydrochloride (1:1) salt] | 13 µM | 40 µmol/kg | –
COCCN(CCOC)C(C)C(=O)Oc1c(OC)cc(C)cc1OC (racemic) [Example 7e, (±)-2-[N-bis(2-methoxyethyl)amino]propionic acid, 2,6-dimethoxy-4-methylphenyl ester hydrochloride (1:1) salt] | < 100 µM | 52 µmol/kg | –
CC[C@H](C(=O)Oc1c(OC)cc(C)cc1OC)N(CCOC)CCOC [Example 7a, R-(+)-2-[N-bis(2-methoxyethyl)amino]butyric acid, 2,6-dimethoxy-4-methylphenyl ester hydrochloride (1:1) salt] | 22 µM | 21 µmol/kg | –
CCOCCN(CCOCC)C(C)C(=O)Oc1c(OC)cccc1OC (single isomer, unassigned; (-)) [Example 7x, (−)-2-[N-bis(2-ethoxyethyl)amino]propionic acid, 2,6-dimethoxyphenyl ester hydrochloride (1:1) salt] | < 100 µM | – | 46 µmol/kg
COCCN(CCOC)[C@H](C)C(=O)Oc1c(OC)cc(C)cc1OC [Example 7y, R-(+)-2-[N-bis(2-methoxyethyl)amino]propionic acid, 2,6-dimethoxy-4-methylphenyl ester hydrochloride (1:1) salt] | < 100 µM | 18 µmol/kg | –
CC[C@@H](C(=O)Oc1c(OC)cc(C)cc1OC)N(CCOC)CCOC [Example 7v, S-(−)-2-[N-bis(2-methoxyethyl)amino]butyric acid, 2,6-dimethoxy-4-methylphenyl ester hydrochloride (1:1) salt] | 14 µM | 35 µmol/kg | –
(±)-2-[N-bis(2-methoxyethyl amino]-3-methylbutyric acid, 2,6-dimethoxy-4-methylphenylester hydrochloride (1:1) salt [Example 7al] | – | – | 44 µmol/kg
COc1cc(C)cc(OC)c1OC(=O)C(C)N(C)Cc1ccccc1 (racemic) [Example 7g, (±)-2-[N-methylbenzylamino]propionic acid, 2,6-dimethoxy-4-methylphenyl ester hydrochloride (1:1) salt] | 22 µM | 45 µmol/kg | –
CCCC(C(=O)Oc1c(OC)cccc1OC)N(CCOC)CCOC (racemic) [Example 7s, (±)-2-[N-bis(2-methoxyethyl)amino]pentanoic acid, 2,6-dimethoxyphenyl ester hydrochloride (1:1) salt] | 4.2 µM | 12 µmol/kg | –
CCCCC(C(=O)Oc1c(OC)cccc1OC)N(CCOC)CCOC.Cl (racemic) [Example 7ad, (±)-2-[N-bis(2-methoxyethyl)amino]hexanoic acid, 2,6-dimethoxyphenyl ester hydrochloride (1:1) salt] | – | – | <12 µmol/kg
CCCCC(C(=O)Oc1c(OC)cccc1OC)N(CCOC)CCOC.Cl (stereo not shown) [Example 7ai, ξ-2-[N-bis(2-methoxyethyl)amino]hexanoic acid, 2,6-dimethoxyphenyl ester hydrochloride (1:1) salt] | – | – | 47 µmol/kg
COc1cc(C)cc(OC)c1OC(=O)[C@@H](C)N(C)Cc1ccccc1 [Example 7h, R-(+)-2-[N-methylbenzylamino]propionic acid, 2,6-dimethoxy-4-methylphenyl ester hydrochloride (1:1) salt] | 27 µM | 56 µmol/kg | –
CCOCCN(CCOCC)C(CC)C(=O)Oc1c(OC)cccc1OC (racemic) [Example 7l, (±)-2-[N-bis(2-ethoxyethyl)amino]butyric acid, 2,6-dimethoxyphenyl ester hydrochloride (1:1) salt] | ~100 µM | – | –
CCC(C(=O)Oc1c(OC)cc(OC)cc1OC)N(CCOC)CCOC (racemic) [Example 7t, (±)-2-[N-bis(2-methoxyethyl)amino]butyric acid, 2,4,6-trimethoxyphenyl ester hydrochloride (1:1) salt] | 14 µM | 21 µmol/kg | –
CCC(C(=O)Oc1c(OC)cccc1OC)N(CC(C)OC)CC(C)OC.Cl (racemic) [Example 7ae, (±)-2-[N-bis(2-methoxypropyl)amino]butyric acid, 2,6-dimethoxyphenyl ester hydrochloride (1:1) salt] | – | – | 27 µmol/kg

Compound | IC50 [1] | ED50 [2] | HD50 [2]
CCC(C(=O)Oc1c(OC(C)C)cccc1OC(C)C)N(CCOC)CCOC (racemic) [Example 7o, (±)-2-[N-bis(2-methoxyethyl)amino]butyric acid, 2,6-di-(1-methyl)ethoxyphenyl ester hydrochloride (1:1) salt] | < 100 µM | 64 µmol/kg | –
CCOc1cccc(OCC)c1OC(=O)C(CC)N(CCOC)CCOC (racemic) [Example 7n, (±)-2-[N-bis(2-methoxyethyl)amino]butyric acid, 2,6-diethoxyphenyl ester hydrochloride (1:1) salt] | 20 µM | 27 µmol/kg | –
COCCN(CCOC)C(C)C(=O)Oc1c(OC)cccc1OC (racemic) [Example 7f, (±)-2-[N-bis(2-methoxyethyl)amino]propionic acid, 2,6-dimethoxyphenyl ester hydrochloride (1:1) salt] | < 100 µM | 55 µmol/kg | –
CCOCCN(CCOCC)C(C)C(=O)Oc1c(OC)cccc1OC (single isomer, unassigned; (+)) [Example 7w, (+)-2-[N-bis(2-ethoxyethyl)amino]propionic acid, 2,6-dimethoxyphenyl ester hydrochloride (1:1) salt] | ~100 µM | – | 35 µmol/kg
COCCN(C)C(C)C(=O)Oc1c(OC)cccc1OC.Cl (stereo not shown) [Example 7p, 2-[N-methyl-(2-methoxy)ethylamino]propionic acid, 2,6-dimethoxyphenyl ester hydrochloride (1:1) salt] | ~100 µM | – | 72 µmol/kg
COc1cccc(OC)c1OC(=O)C(C)N(C)CCc1ccccc1 (stereo not shown) [Example 7m, 2-[N-methylphenethylamino]propionic acid, 2,6-dimethoxyphenyl ester hydrochloride (1:1) salt] | 59 µM | 38 µmol/kg | –
CCN(CC)C(C)C(=O)Oc1c(OC)cc(C)cc1OC (racemic) [Example 7j, (±)-2-[diethylamino]propionic acid, 2,6-dimethoxy-4-methylphenyl ester hydrochloride (1:1) salt] | < 50 µM | 43 µmol/kg | –
COCCN(CCOC)C(C(=O)Oc1c(OC)cccc1OC)C(C)C (racemic) [Example 7u, (±)-3-methyl-2-[N-bis(2-methoxyethyl)amino]butyric acid, 2,6-dimethoxyphenyl ester hydrochloride (1:1) salt] | 100 µM | 27 µmol/kg | –
CCCC(C(=O)Oc1c(OC)cc(C)cc1OC)N(CCOC)CCOC.Cl (racemic) [Example 7af, (±)-2-[N-bis(2-methoxyethyl)amino]pentanoic acid, 2,6-dimethoxy-4-methylphenyl ester hydrochloride (1:1) salt] | – | – | 34 µmol/kg
CCOCCN(CCOCC)[C@@H](CC)C(=O)Oc1c(OC)cccc1OC [Example 7aa, S-(−)-2-[N-bis(2-ethoxyethyl)amino]butyric acid, 2,6-dimethoxyphenyl ester hydrochloride (1:1) salt] | 11 µM | 22 µmol/kg | –
CCCCC(C(=O)Oc1c(OC)cccc1OC)N(CCOC)CCOC.Cl (stereo not shown) [Example 7ah, ξ-2-[N-bis(2-methoxyethyl)amino]hexanoic acid, 2,6-dimethoxyphenyl ester hydrochloride (1:1) salt] | – | – | 8 µmol/kg
COCCN(C)C(CC(C)C)C(=O)Oc1c(OC)cc(C)cc1OC.Cl (racemic) [Example 7ak, (±)-2-[N-(2-methoxyethyl)-N-methylamino]-4-methylpentanoic acid, 2,6-dimethoxy-4-methylphenylester hydrochloride (1:1) salt] | – | – | 28 µmol/kg
COc1cccc(OC)c1OC(=O)C(C)N1CCOCC1 (stereo not shown) [Reference, 2,6-dimethoxyphenyl 2-morpholinopropionate, reference compound] | 766 µM | 139 µmol/kg | –
CCCCC(C(=O)Oc1c(OC)cc(C)cc1OC)N(CCOC)CCOC.Cl (racemic) [Example 7ag, (±)-2-[N-bis(2-methoxyethyl)amino]hexanoic acid, 2,6-dimethoxy-4-methylphenyl ester hydrochloride (1:1) salt] | – | – | 34 µmol/kg
COCCN(CCOC)C(CC(C)C)C(=O)Oc1c(OC)cc(C)cc1OC.Cl (racemic) [Example 7aj, (±)-2-[N-bis(2-methoxyethyl)amino]4-methylpentanoic acid, 2,6-dimethoxy-4-methylphenylester hydrochloride (1:1) salt] | – | – | convulsant
